# Patent US20260355199A1, “COMPOSITIONS AND METHODS FOR TREATING OR PREVENTING NONALCOHOLIC STEATOHEPATITIS (NASH), ANOREXIA, DEPRESSION, ENDOMETRIOSIS, AND OTHER DISEASES OR DISORDERS” (priority 2022, published 2026)
# Entries after “also recorded” stand apart in the source; their conditions may differ.
# Columns and labels:
# [1] = tested on: NPY and VGAT; assay: NPY and VGAT expression in leptin-treated GT1-7 cells; format: cell-based, mouse; details: TET3-dependent manner
# Experimental: Mouse GT1-7 hypothalamic neuronal cell line (Sigma-Aldrich, SCC116), human SH-SY5Y neuronal blastoma cell line (ATCC, CRL-2266), and embryonic mouse hypothalamus cell line N11 (mHypoE-N11) (Cedarlane, CLU107) were purchased and cultured according to the manufacturers' instructions. For siRNA transfection in a 24-well plate scale, cells were seeded at a density of 2×10^5 cells/well the day before transfection. To prepare siRNA transfection solution for each well of cells, 5 pmol of NT siRNA (non-targeting control siRNA, AM4636, Ambion), Tet3 siRNA (siRNA specifically targeting mouse Tet3, 4390815/s101483, Ambion), or TET3 siRNA (siRNA specifically targeting human TET3, 4392420/s47238, Ambion) (Cao et al., 2019, Oncogene, 38:5356-5366; Xu et al., 2020, Cell Rep., 30:1310-1318) were mixed with 25 μl of OPTI-MEM (Gibco, 31985-070) by gentle pipetting (Cao, T. et al., 2019, Oncogene, 38:5356-5366; Xu, Y. et al., 2020, Cell Reports, 30:1310-1318 e5). In parallel, 1.5 μl of Lipofectamine RNAiMAX (Invitrogen, 13778-150) was mixed with 25 μl of OPTI-MEM by gentle pipetting. Following 5 min of incubation at room temperature, the resulting 50 μl of transfection solution was added to one well of cells containing 1 ml culture media. […]
# [2] = tested on: MDMs; assay: TUNEL assay in human MDMs; format: cell-based; details: 10 μM, 48 h
# Experimental: For TET3 expression restoration experiments, cells seeded in 24-well plates were infected with Ad-GFP or Ad-TET3 at 4000 gc/cell. Following 16 h of infection, vehicle or Bobcat339 were added at a final concentration of 10 μM. Protein and RNA were isolated 48 hours later and analyzed.
# These were performed using the In Situ Cell Death Detection Kit (Sigma Aldrich, 12156792910). Briefly, cells were fixed with 4% paraformaldehyde in PBS for 1 h at RT and rinsed with PBS, followed by permeabilization with 0.1% Triton X-100 in 0.1% sodium citrate for 2 min on ice. TUNEL reaction mixture was added and incubation was carried out at 37 °C for 60 min. DAPI was added to counter-stain the cells for 1 min. The slides were coverslipped and scoped using a Keyence BZ-X700 fluorescence microscope.
# [3] = tested on: TET2; details: cited from earlier work
# [4] = tested on: TET3 and TET2 mRNA; assay: TET3 and TET2 mRNA in human MDMs; format: cell-based; design: TET3 and TET2 mRNA levels: dose or concentration left out as unconfirmed; details: 24 h
# Experimental: For siRNA transfection in a 24-well plate scale of MDMs, NT siRNA or TET3 siRNA (4392420/s47239, Ambion) was mixed with 25 μL of OPTI-MEM by gentle pipetting. In parallel, 1.5 μL of Lipofectamine RNAiMAX was mixed with 25 μL of OPTI-MEM by gentle pipetting. Following 5 min of incubation at RT, the resulting 50 μl of transfection solution was added to each well of cells containing 450 μL of growth media.
# Bobcat339 Treatment of Cultured Cells Bobcat339 powder (Sigma-Aldrich, SML2611) was freshly dissolved in DMSO at a concentration of 5 mM and filtered through a 0.22 micron. […]
# For cultured MDMs, cells were primed with CM-Endo or TGF-β1 (PeproTech, 100-21) for 36-48 h (to increase TET3 expression) before Bobcat339 treatment.
# Total RNAs were extracted from cells using PureLink RNA Mini Kit. 0.5-1 μg total RNA was reverse transcribed to cDNA in a reaction volume of 20 μL using PrimeScript RT Reagent Kit. Real-time quantitative PCR was performed in a 15 μL reaction volume containing 0.5-1 μL of cDNA using SsoAdvanced Universal SYBR Green Supermix in a Bio-Rad iCycler. Gene expression levels were normalized against RPLP0.
# [5] = tested on: TET3; assay: TET3 protein stability (cycloheximide) in MDMs; format: cell-based, human; details: 10 μM, with cycloheximide
# Experimental: For TET protein stability assay of MDMs, cells in 24-well plates were incubated with vehicle or Bobcat339 at a final concentration of 10 μM for 3 h, followed by addition of cycloheximide (CHX, Cell Signaling, 2112) at a final concentration of 50 μg/mL. Proteins were harvested at 0, 2, 4, and 6 hours after addition of CHX.
# [6] = tested on: Bobcat339-treated ABA mice; assay: Behavioral tests (OFT, TST, FST); format: in vivo, mouse
# Excerpt: It has been reported that AgRP neuron-specific TET3 knockdown reduces stress-like behaviors with decreased levels of circulating corticosterone. […] The open field test (OFT) has been used to assess general locomotor activity and anxiety; the tail suspension test (TST) and forced swim test (FST) have been used to evaluate behavioral despair and also to test the efficacy of new antidepressant compounds. All three tests (OFT, TST, and FST) have been used in previous studies to assess behavioral impacts of AgRP neurons in mice (Miletta, M. C. et al., 2020, Nature Metabolism, 2:1204-1211).
# For all behavioral tests, mice were transferred to the testing room 1 h prior to testing for acclimation to the environment. All behavioral tests were performed in the afternoon (14:00-16:00). All behavioral apparatus was wiped with 70% ethanol prior to each trial and between trials. The open field (OF) apparatus consisted of a 56×56 cm open arena with 30 cm high walls. The mouse was placed into the center of the arena and allowed to move freely for 10 min with the activity being recorded and tracked by LimeLight 3 software (Actimetrics, Coulbourn Instruments). The software recorded and analyzed the distance and time traveled in the central (28×28 cm central area of the OF) and outer areas of the arena. The tail suspension test (TST) and the forced swim test (FST) lasted for 6 min and the total amount of immobility time during the final 4 min was measured for each animal.
Compound,NPY and VGAT expression [1],apoptosis (TUNEL) [2],apoptosis (TUNEL / Caspase-1) ([2]; with Ad-TET3),inhibitory activity against TET2 ([3]; in the absence of contaminating copper (II)),inhibition of enzymatic activity of TET2 ([3]; initially reported),TET3 and TET2 mRNA ([4]; 10 μM),TET3 and TET2 mRNA levels [4],TET3 protein stability [5],FST immobility time ([6]; forced swim test),OFT time spent in the center zone ([6]; open field test),OFT total distance travelled ([6]; open field test),TST immobility time ([6]; tail suspension test)
"leptin: adipose hormone; mouse leptin L3772-1MG or human leptin L4146-1MG, Sigma Aldrich",negatively affected the expression of NPY and VGAT,,,,,,,,,,,
"Nc1nc(=O)n(-c2cccc(-c3ccccc3)c2)cc1Cl [Bobcat339, 4-Amino-1-[1,1′-biphenyl]-3-yl-5-chloro-2(1H)-pyrimidinone]",,increased apoptosis; also recorded: induced apoptosis; also recorded: a significant increase in pyroptotic cell death,abolished when TET3 protein was restored to control levels; also recorded: not seen when TET3 expression level was restored,negligible inhibitory activity,inhibit the enzymatic activity,did not alter the mRNA levels of TET3 and TET2; also recorded: no significant differences in their expression,did not alter the mRNA levels of TET3 and TET2,reduced the steady-state level of TET3 much more dramatically than that of TET2,spent less immobility time,increased time spent in the center zone,no differences in the total distance travelled,spent less immobility time
